These results are taken from ChEMBL document CHEMBL5634087, “Novel 5-aminopyrazoles endowed with anti-angiogenetic properties: Design, synthesis and biological evaluation” (Eur J Med Chem, 2023).

The inhibition is the drop in the measured response relative to a control, in per cent.

Series [1] concerns SK-MEL-28. Briefly: Antiproliferative activity against human SK-MEL-28 cells assessed as growth rate at 10 uM incubated for 48 hrs by MTT assay relative to control. As to conditions: read-out: Activity. The class given is functional.
Series [2] has as its system SK-OV-3. Briefly: Antiproliferative activity against human SK-OV-3 cells assessed as growth rate at 10 uM incubated for 48 hrs by MTT assay relative to control. The class given is functional. To be noted: read-out: Activity. Background: Tetrazolium assays rely on reduction of a dye to a coloured formazan, in cell work by metabolically active cells.
Series [3] concerns MCF7. The series is described as follows: Antiproliferative activity against human MCF7 cells assessed as growth rate at 10 uM incubated for 48 hrs by MTT assay relative to control. The format is functional. As to conditions: read-out: Activity.
The subject of series [4] is A549. Briefly: Antiproliferative activity against human A549 cells assessed as growth rate at 10 uM incubated for 48 hrs by MTT assay relative to control. As to conditions: read-out: Activity. The class given is functional.
Series [5] has as its system SK-BR-3. The series is described as follows: Antiproliferative activity against human SK-BR-3 cells assessed as growth rate at 10 uM incubated for 48 hrs by MTT assay relative to control. The format is functional. To be noted: read-out: Activity.
The subject of series [6] is HeLa. Briefly: Antiproliferative activity against human HeLa cells assessed as growth rate at 10 uM incubated for 48 hrs by MTT assay relative to control. The class given is functional. To be noted: read-out: Activity.
The subject of series [7] is HepG2. Briefly: Antiproliferative activity against human HepG2 cells assessed as growth rate at 10 uM incubated for 48 hrs by MTT assay relative to control. The class given is functional. To be noted: read-out: Activity.
The test system of series [8] is MDA-MB-231. The series is described as follows: Antiproliferative activity against human MDA-MB-231 cells assessed as growth rate at 10 uM incubated for 48 hrs by MTT assay relative to control. The format is functional. To be noted: read-out: Activity.
Series [9] can be described thus: Cytotoxicity against human GM06114 cells assessed as growth rate at 10 uM incubated for 48 hrs by MTT assay relative to control. The class given is toxicity, cell-based. To be noted: gm06114, 48 h.
The target of series [10] is RAC-alpha serine/threonine-protein kinase (Homo sapiens) (UniProt P31749). The series is described as follows: Inhibition of AKT phosphorylation in serum starved bFGF stimulated HFF cells at 20 uM preincubated for 10 mins followed by bFGF addition and measured after 20 mins by Western blotting analysis. The format is cell-based. To be noted: time 30.0 min. On the technique in general: In western blotting, separated proteins are transferred to a membrane and probed.
Sequence of RAC-alpha serine/threonine-protein kinase (Homo sapiens) (P31749 whole entry): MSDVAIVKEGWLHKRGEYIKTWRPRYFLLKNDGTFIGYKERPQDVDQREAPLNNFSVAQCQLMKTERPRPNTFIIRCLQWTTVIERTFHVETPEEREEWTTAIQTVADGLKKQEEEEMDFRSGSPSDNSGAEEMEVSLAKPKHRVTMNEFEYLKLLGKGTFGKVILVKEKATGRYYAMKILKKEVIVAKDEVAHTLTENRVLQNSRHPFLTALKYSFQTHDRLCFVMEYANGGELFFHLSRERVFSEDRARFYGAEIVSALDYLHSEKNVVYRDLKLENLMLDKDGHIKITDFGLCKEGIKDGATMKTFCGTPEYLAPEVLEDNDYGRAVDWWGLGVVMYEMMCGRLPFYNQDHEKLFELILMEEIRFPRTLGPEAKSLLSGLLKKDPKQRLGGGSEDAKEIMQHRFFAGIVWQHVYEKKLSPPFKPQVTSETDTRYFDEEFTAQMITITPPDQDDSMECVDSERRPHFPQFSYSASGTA

Series [11] addresses Mitogen-activated protein kinase; ERK1/ERK2 (Homo sapiens) (UniProt P27361+P28482). The series is described as follows: Inhibition of ERK1/2 phosphorylation in serum starved bFGF stimulated HFF cells assessed as residual phosphorylated ERK1/2 level at 20 uM preincubated for 10 mins followed by bFGF addition and measured after 20 mins by Western blotting analysis relative to control. The format is cell-based. As to conditions: time 30.0 min.

In series [12] the target is RAC-alpha serine/threonine-protein kinase (Homo sapiens) (UniProt P31749). The series is described as follows: Inhibition of AKT phosphorylation in serum starved VEGF stimulated HUVEC cells at 20 uM preincubated for 10 mins followed by VEGF addition and measured after 20 mins by Western blotting analysis relative to control. As to conditions: time 30.0 min. The class given is cell-based.

Series [13] relates to HFF. Briefly: Antiangiogenic activity in confluent HFF cells assessed as inhibition of cell migration at 20 uM incubated for 24 to 48 hrs by Hoechst 33342 staining based wound healing assay. As to conditions: Homo sapiens, time 24-48 hrs. The format is functional.
Series [14] has as its system HFF. Briefly: Antiangiogenic activity in confluent HFF cells assessed as relative migration rate at 20 uM incubated for 48 hrs by Hoechst 33342 staining based wound healing assay relative to control. The format is functional, Homo sapiens.
Series [15] has as its system HUVEC. Briefly: Antiangiogenic activity in confluent VEGF stimulated HUVEC cells assessed as inhibition of cell migration at 20 uM incubated for 24 to 48 hrs by Hoechst 33342 staining based wound healing assay. The class given is functional. To be noted: Homo sapiens, time 24-48 hrs.
The target in series [16] is RAC-alpha serine/threonine-protein kinase (Homo sapiens) (UniProt P31749). The series is described as follows: Inhibition of AKT phosphorylation in serum starved bFGF stimulated HFF cells assessed as residual activity at 20 uM preincubated for 10 mins followed by bFGF addition and measured after 20 mins by Western blotting analysis relative to control. To be noted: time 30.0 min. The class given is cell-based.

The subject of series [17] is HFF. The series is described as follows: Antiangiogenic activity in confluent HFF cells assessed as relative migration rate at 20 uM incubated for 24 hrs by Hoechst 33342 staining based wound healing assay relative to control. The format is functional, Homo sapiens.
Series [18] has as its system HFF. Briefly: Antiangiogenic activity in confluent HFF cells assessed as inhibition of cell migration at 20 uM incubated for 24 to 48 hrs by Hoechst 33342 staining based wound healing assay relative to control. The format is functional, Homo sapiens. Set-up: scale not given: the % may be the effect or the level left. To be noted: time 24-48 hrs.
Series [19] has as its target RAC-alpha serine/threonine-protein kinase (Homo sapiens) (UniProt P31749). Briefly: Inhibition of AKT phosphorylation in serum starved VEGF stimulated HUVEC cells at 20 uM preincubated for 10 mins followed by VEGF addition and measured after 20 mins by Western blotting analysis. The format is cell-based. To be noted: time 30.0 min.
Series [20] has as its system HUVEC. Briefly: Antiangiogenic activity in confluent VEGF stimulated HUVEC cells assessed as relative cell migration rate at 20 uM incubated for 24 hrs by Hoechst 33342 staining based wound healing assay relative to control. The class given is functional, Homo sapiens.

Active and inactive are the calls of the source. The calls are words filed in the database; no cut-off is given here.

Sequence of Mitogen-activated protein kinase; ERK1/ERK2 (Homo sapiens) (P27361 whole entry, looked up): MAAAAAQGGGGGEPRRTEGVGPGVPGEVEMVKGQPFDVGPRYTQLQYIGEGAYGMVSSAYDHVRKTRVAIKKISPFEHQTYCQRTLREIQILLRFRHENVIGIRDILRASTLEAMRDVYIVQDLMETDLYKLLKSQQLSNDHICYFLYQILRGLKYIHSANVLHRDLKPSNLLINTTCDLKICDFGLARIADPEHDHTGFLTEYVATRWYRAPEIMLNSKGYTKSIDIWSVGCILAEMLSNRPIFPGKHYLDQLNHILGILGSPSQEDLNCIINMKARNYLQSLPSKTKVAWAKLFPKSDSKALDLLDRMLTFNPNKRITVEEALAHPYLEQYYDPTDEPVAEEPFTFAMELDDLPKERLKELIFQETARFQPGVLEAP
Sequence of Mitogen-activated protein kinase; ERK1/ERK2 (Homo sapiens) (P28482 whole entry, looked up): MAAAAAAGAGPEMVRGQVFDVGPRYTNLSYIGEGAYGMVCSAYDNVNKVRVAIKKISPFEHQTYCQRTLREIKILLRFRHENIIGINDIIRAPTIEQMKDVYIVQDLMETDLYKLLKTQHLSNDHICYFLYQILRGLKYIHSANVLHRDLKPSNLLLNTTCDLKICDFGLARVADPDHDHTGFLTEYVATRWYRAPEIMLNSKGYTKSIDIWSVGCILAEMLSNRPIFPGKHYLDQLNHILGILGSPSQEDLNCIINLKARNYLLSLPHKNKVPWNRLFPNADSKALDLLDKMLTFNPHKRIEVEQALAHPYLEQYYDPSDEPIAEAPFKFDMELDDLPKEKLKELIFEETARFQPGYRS

Consider `CCCCC(O)Cn1nc(Nc2ccc(C)cc2)c(C(=O)OCC)c1N` (stereo not drawn), for which the growth at 10 µM in series [1] worked out at 122%; in series [2] it was 112%; in [3], 155%; in series [4], 120%; in [5] it was 105%; in [6], 109%. The growth at 10 µM in series [7] amounted to 99%; in series [8] it was 134%. In addition, the Activity amounted to 106.98% in series [9], 50% in series [11] and 14.34% in series [14]. In [10], the inhibition result is “Active”. Moreover, the inhibition in series [12] turned out to be 43%. The result in series [13] was Active. Further, the result in [15] was inactive.
Regarding `CCOC(=O)c1c(Nc2ccc(C)cc2)nn(CC(O)c2ccccc2)c1N` (stereo not drawn), the growth at 10 µM in [1] worked out at 128%; in series [2] it was 117%; in series [3], 119%; in [4], 118%; in series [5], 112%; in series [6], 80%. In addition, the results for the growth at 10 µM in series [7] and in series [8] were 102% and 117%, respectively. The Activity is 105.89% in series [9]; 27.3% in series [16]; above 70% in series [11]; below 40% in series [17]; below 55% in series [14]. The same compound registered an inhibition in [12] of 16.2%. Moreover, the outcome in [15] was inactive.
For the compound `CCCCC(Cn1nc(Nc2ccccc2Cl)c(C(=O)OCC)c1N)OC(=O)Nc1cccc(C(F)(F)F)c1` (stereo not drawn), the growth at 10 µM in [1] turned out to be 121%; in series [2], 127%; in series [3], 142%; in series [4] it was 109%; in series [5], 106%; in series [6], 84.3%. For the same compound, the growth at 10 µM in series [7] was found to be 110%; in [8] it was 133%. Moreover, the Activity was 92.97% in series [9], above 70% in series [11] and below 60% in [18]. In addition, in series [10], the inhibition entry is “inactive”. In series [15], the result was inactive.
Take `CCCCC(O)Cn1nc(Nc2ccccc2)c(C(=O)OCC)c1N` (stereo not drawn): the growth at 10 µM in series [1] stood at 117%; in series [2], 118%; in [3], 147%; in series [4], 130%; in [5] it was 109%; in [6], 115%. The figures for the growth at 10 µM in [7] and in series [8] were 102% and 131%, respectively. For the same compound, the Activity in series [9] was 97.13%; in [11], above 70%. Besides, in series [10], the inhibition result is “Active”. Besides, in series [12], the inhibition is 43%. The result in [13] was Active. Also, the outcome in series [15] was inactive.
Take `CCOC(=O)c1c(Nc2ccc(Cl)cc2)nn(CC(O)c2ccccc2)c1N` (stereo not drawn): the growth at 10 µM was determined as 131% in series [1]; 114% in [2]; 125% in [3]; 116% in series [4]; 119% in [5]; 77.6% in series [6]. Moreover, the figures for the growth at 10 µM in series [7] and in series [8] were 102% and 127%, respectively. The Activity in series [9] is 113.67%; in series [16], 27.3%; in series [11], above 70%; in [17], below 40%; in series [14] it was below 55%. This compound also showed an inhibition in series [12] of 21%. Also, the result in series [15] was inactive.
Turning to `CCCCC(O)Cn1nc(Nc2cccc(C)c2)c(C(=O)OCC)c1N` (stereo not drawn), the growth at 10 µM in series [1] was 110%; in [2], 114%; in series [3] it was 112%; in series [4], 121%; in series [5], 107%; in series [6] it was 98.2%. Besides, the growth at 10 µM in series [7] is 105%; in [8], 113%. For the same compound, the Activity was 110.95% in series [9], above 70% in [11] and 10.57% in series [17]. Further, the inhibition result in [10] is “Active”. In addition, the inhibition in series [12] is 43%. For the same compound, the result in [13] was Active. Further, the outcome in [15] was inactive.
On to `CCCCC(O)Cn1nc(Nc2ccc(Cl)cc2)c(C(=O)OCC)c1N` (stereo not drawn), for which the growth at 10 µM in [1] was found to be 115%; in series [2] it was 132%; in series [3] it was 145%; in series [4] it was 130%; in series [5] it was 114%; in [6], 104%. Also, the growth at 10 µM is 108% in series [7] and 137% in [8]. Moreover, the Activity is 93.96% in [9] and above 70% in series [11]. Further, the inhibition result in series [10] and in [19] was “inactive” in each case. For the same compound, the result in [13] was Active. Besides, the outcome in series [15] was inactive.
On to `CCCCC(Cn1nc(Nc2ccccc2C)c(C(=O)OCC)c1N)OC(=O)Nc1cccc(C(F)(F)F)c1` (stereo not drawn), for which the growth at 10 µM was 141% in series [1]; 103% in [2]; 110% in series [3]; 81.7% in [4]; 124% in series [5]; 58.5% in series [6]. Besides, the figures for the growth at 10 µM in series [7] and in series [8] were 106% and 117%, respectively. For the same compound, the Activity in series [9] was 110.05%; in series [11] it was above 70%. Moreover, in [10], the inhibition entry is “inactive”. The compound also showed an inhibition in series [12] of 29.7%. In addition, the outcome in series [13] and in series [15] was inactive.
For `CCOC(=O)c1c(Nc2ccccc2)nn(CC(O)c2ccccc2)c1N` (stereo not drawn), the growth at 10 µM in [1] was determined as 114%; in series [2] it was 118%; in [3], 150%; in series [4] it was 133%; in series [5], 112%; in series [6], 111%. Moreover, the growth at 10 µM in [7] was found to be 108%; in series [8], 131%. Further, the Activity is 96.04% in series [9]; 27.3% in series [16]; above 70% in series [11]; below 40% in series [17]; below 55% in series [14]. The outcome in series [15] was inactive.
In the case of `CCCC(O)Cn1ncc(C(=O)OCC)c1NC(=O)Nc1cccc(C(F)(F)F)c1` (stereo not drawn), the Activity in series [16] was 55.9%; in series [17], 40.31%; in series [14] it was 31.37%; in [20] it was 56.54%. This compound yielded an inhibition in [12] of 59.1%. In series [15], the result was inactive.
For the compound `CCOC(=O)c1c(Nc2ccccc2)nn(CC(OC(=O)Nc2cccc(C(F)(F)F)c2)c2ccccc2)c1N` (stereo not drawn), the growth at 10 µM in series [1] worked out at 115%; in series [2], 120%; in [3], 124%; in [4], 82.9%; in series [5], 125%; in [6], 60.6%. Moreover, the growth at 10 µM in series [7] was found to be 117%; in series [8], 113%. Further, the Activity was 126.08% in [9], above 70% in series [11] and below 60% in [18]. Further, the inhibition in series [12] came to 34.2%. For the same compound, in [15], the outcome was inactive.
